In ChEMBL document CHEMBL4043137, “Structure-based design, synthesis and in vitro antiproliferative effects studies of novel dual BRD4/HDAC inhibitors” (Bioorg Med Chem Lett, 2017):

Columns and labels:
[1] = tested on: MV4-11; assay: cells; assay type: functional, cell-based; conditions: Homo sapiens, MV4-11, 72 h
Description: Antiproliferative activity against human MV4-11 cells after 72 hrs by MTT assay

[2] = molecular target: T1, Bromodomain-containing protein 4 (Homo sapiens, UniProt O60885); assay: Inhibition of human BRD4 bromo domain 2 at 5 uM
[3] = molecular target: T1, Bromodomain-containing protein 4; assay: Inhibition of human BRD4 bromo domain 2 at 0.5 uM
[4] = tested on: OCI-AML2; assay: cells; assay type: functional, cell-based; conditions: Homo sapiens, OCI-AML2, 72 h
Description: Antiproliferative activity against human OCI-AML2 cells after 72 hrs by MTT assay

[5] = tested on: OCI-AML-3; assay: cells; assay type: functional, cell-based; conditions: Homo sapiens, OCI-AML-3, 72 h
Description: Antiproliferative activity against human OCI-AML3 cells after 72 hrs by MTT assay

[6] = molecular target: T1, Bromodomain-containing protein 4; assay: Inhibition of BRD4 (unknown origin)
[7] = molecular target: T1, Bromodomain-containing protein 4; assay: Inhibition of human BRD4 bromo domain 2
[8] = molecular target: T1, Bromodomain-containing protein 4; assay: Inhibition of human BRD4 bromo domain 1
[9] = molecular target: Histone deacetylase 1 (Homo sapiens, UniProt Q13547); assay: Inhibition of recombinant human HDAC1 after 30 mins by fluorescence assay
Sequence of Histone deacetylase 1 (Q13547 whole entry): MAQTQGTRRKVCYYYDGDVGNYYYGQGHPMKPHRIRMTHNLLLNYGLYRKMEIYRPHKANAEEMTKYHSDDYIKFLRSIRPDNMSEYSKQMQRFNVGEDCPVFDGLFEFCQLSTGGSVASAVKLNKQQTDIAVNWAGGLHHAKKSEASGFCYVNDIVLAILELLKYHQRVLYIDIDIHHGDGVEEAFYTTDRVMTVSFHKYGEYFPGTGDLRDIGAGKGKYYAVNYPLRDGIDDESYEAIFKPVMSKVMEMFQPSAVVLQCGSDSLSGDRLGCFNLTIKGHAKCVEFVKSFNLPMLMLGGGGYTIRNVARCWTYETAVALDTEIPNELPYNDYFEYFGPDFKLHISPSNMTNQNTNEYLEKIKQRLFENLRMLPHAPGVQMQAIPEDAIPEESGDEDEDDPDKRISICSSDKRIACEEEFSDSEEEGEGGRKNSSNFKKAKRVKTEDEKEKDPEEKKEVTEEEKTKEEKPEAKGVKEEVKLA

IC50 [1]	inhibition [2]	inhibition [3]	IC50 [4]	IC50 [5]	IC50 [6]	IC50 [7]	IC50 [8]	IC50 [9]	Compound
5000 nM	90%	42%	4530 nM	5530 nM					COc1cc(OC)c2c(=O)[nH]c(-c3cc(C)c(OCCCC(=O)NO)c(C)c3)nc2c1
	98%	87%							COc1cc(OC)c2c(=O)[nH]c(-c3cc(C)c(O)c(C)c3)nc2c1
4480 nM			8310 nM	7170 nM					COc1cc(OC)c2c(=O)[nH]c(-c3cc(C)c(OCCO)c(C)c3)nc2c1 [APABETALONE]
1670 nM	91%	73%	1520 nM	1090 nM		225 nM	> 5000 nM	32 nM	COc1cc(OC)c2c(=O)[nH]c(-c3cc(C)c(OCCCCC(=O)NO)c(C)c3)nc2c1
	93%	41%							COc1cc(OC)c2c(=O)[nH]c(-c3cc(C)c(OC/C=C/C(=O)NO)c(C)c3)nc2c1
920 nM	97%	90%	980 nM	670 nM					COc1cc(OC)c2c(=O)[nH]c(-c3cc(C)c(OCCCCCC(=O)NO)c(C)c3)nc2c1

The next lines start with the compound.

Compound	IC50 [1]	inhibition [2]	inhibition [3]	IC50 [4]	IC50 [5]	IC50 [6]	IC50 [7]	IC50 [8]	IC50 [9]
C/C=C1\NC(=O)[C@H]2CSSCC/C=C/[C@H](CC(=O)N[C@H](C(C)C)C(=O)N2)OC(=O)[C@H](C(C)C)NC1=O [ROMIDEPSIN]						36 nM			
O=C(CCCCCCC(=O)Nc1ccccc1)NO [VORINOSTAT]		10%	2%			10 nM			
COc1cc(OC)c2c(=O)[nH]c(-c3cc(C)c(OCc4ccc(/C=C/C(=O)NO)cc4)c(C)c3)nc2c1	560 nM	83%	62%	380 nM	430 nM		401 nM	> 5000 nM	204 nM
COc1cc(OC)c2c(=O)[nH]c(-c3ccc(OCCCCC(=O)NO)cc3)nc2c1	9880 nM			12200 nM	9310 nM				
COc1cc(OC)c2c(=O)[nH]c(-c3ccc(OCCCCCC(=O)NO)cc3)nc2c1	4280 nM			13600 nM	11100 nM				
COc1cc(OC)c2c(=O)[nH]c(-c3cc(C)c(OCCCCCCCC(=O)NO)c(C)c3)nc2c1	2220 nM	99%	59%	2210 nM	1830 nM				
COc1cc(OC)c2c(=O)[nH]c(-c3cc(C)c(OCCCCCCC(=O)NO)c(C)c3)nc2c1		88%	29%						
COc1cc(OC)c2c(=O)[nH]c(-c3ccc(OCc4ccc(/C=C/C(=O)NO)cc4)cc3)nc2c1	1970 nM			1780 nM	1800 nM				
Cc1[nH]c2ccccc2c1CCNCc1ccc(/C=C/C(=O)NO)cc1 [PANOBINOSTAT]						5 nM			
COc1cc(OC)c2c(=O)[nH]c(-c3cc(C)c(Oc4ccc(C(=O)NO)cn4)c(C)c3)nc2c1	1390 nM	93%	51%	6360 nM	3040 nM				
